Assay results as given in patent publication US4097471A, “Polypeptides with morphine-like activity” (American Home Products Corporation, priority 1977, dated 1978).
Peptide text beside a SMILES is read from it.

What was measured:
[1] = system: pain threshold (tail-flick latency); experiment: rat-tail flick method, intracerebroventricular injection; format: in vivo; conditions: for Mean Latency ± SEM, Drug / Mean % Change ± SEM: injected into lateral ventricle; for Mean Latency ± SEM, Drug / Mean % Change ± SEM / analgesic effect / pain threshold: rat; for Mean % Change ± SEM: drug minus baseline latency; for analgesic effect / pain threshold: injected into the lateral brain ventricle
Description: In this test method, which is a standard test for analgesia, a light beam is focused on the tip of the rat's tail, and the pain threshold of the animal is measured by the latency of the rat to remove his tail from the noxious heat source. When tested by the rat-tail flick method by intracerebroventricular injection, according to the procedure of Belluzzi et al., Nature, 260, 625 (1976), the polypeptides of this invention produced the effects set forth in Table I.
*All drugs were dissolved in […]. of Ringer's solution and injected int
the lateral ventricle through permanently-indwelling cannulae.

opiate receptors = experiment: binding to opiate receptors in vitro, displacement of 3H-naloxone in rat brain homogenates
analgesia = conditions: injection in the brain ventricle in rats; fully reversible by naloxone; cited from earlier work

SMILES | Mean Latency ± SEM, Drug ([1]; dose 10 μg) | Mean % Change ± SEM ([1]; dose 10 μg) [%] | Mean Latency ± SEM, Drug ([1]; dose 100 μg) | Mean % Change ± SEM ([1]; dose 100 μg) [%] | Mean Latency ± SEM, Drug ([1]; dose 200 μg) | Mean % Change ± SEM ([1]; dose 200 μg) [%] | analgesic activity at low dose ([1]; dose as low as 10 μg) | duration of analgesic effect ([1]; dose as low as 10 μg) [h] | analgesic effect / pain threshold ([1]; listed as polypeptide of Formula I) | analgesic effect / pain threshold ([1]; listed as polypeptide of this invention) | binding to opiate receptors in vitro (opiate receptors; in vitro) | displacing 3H-naloxone from binding sites (opiate receptors; rat brain homogenates) | analgesia (analgesia)
CC(C)C[C@H](NC(=O)[C@H](Cc1ccccc1)NC(=O)CNC(=O)CNC(=O)[C@@H](N)Cc1ccc(O)cc1)C(=O)N[C@H](C(=O)N[C@@H](CO)C(=O)N[C@@H](CCC(=O)O)C(=O)N[C@@H](CCCCN)C(=O)N[C@@H](CO)C(=O)N[C@@H](CCC(N)=O)C(=O)N[C@H](C(=O)N1CCC[C@H]1C(=O)N[C@@H](CC(C)C)C(=O)N[C@H](C(=O)N[C@H](C(=O)O)[C@@H](C)O)C(C)C)[C@@H](C)O)[C@@H](C)O [β-LPH 61-76 (Leu^65), L-Tyrosyl-glycyl-glycyl-L-phenylalanyl-L-leucyl-L-threonyl-L-seryl-L-glutamyl-L-lysyl-L-seryl-L-glutaminyl-L-threonyl-L-prolyl-L-leucyl-L-valyl-L-threonine] (H-YGGFLTSEKSQTPLVT-OH) | 4.33 ± 0.05 | 34.32 ± 8.75 | 6.26 ± 0.96 | 86.02 ± 30.79 | 4.16 | 3.04 | active | > 2 | exerts an analgesic effect | produced an increase in pain threshold | weak binding | capable of displacing 3H-naloxone | 
CSCC[C@H](NC(=O)[C@H](Cc1ccccc1)NC(=O)CNC(=O)CNC(=O)[C@@H](N)Cc1ccc(O)cc1)C(=O)O [Methionine-Enkaphalin, H-Tyr-Gly-Gly-Phe-Met-OH] |  |  |  |  |  |  |  |  |  |  |  |  | induce a profound analgesia
CC(C)C[C@H](NC(=O)[C@H](Cc1ccccc1)NC(=O)CNC(=O)CNC(=O)[C@@H](N)Cc1ccc(O)cc1)C(=O)O [Leucine-Enkephalin, H-Tyr-Gly-Gly-Phe-Leu-OH, reference compound] |  |  | 5.11 ± 0.34 | 31.7 ± 11.5 |  |  |  |  |  |  |  |  | induce a profound analgesia
